# Test results as given in US11083729B2, “Methods of treating cancer with small molecule NF-κB inhibitors” (ImmuneTarget, Inc., priority 2017, dated 2021).
# Molecular target: T1, c-Rel protein (Homo sapiens, UniProt Q04864)
# T1 sequence (Q04864 1-619): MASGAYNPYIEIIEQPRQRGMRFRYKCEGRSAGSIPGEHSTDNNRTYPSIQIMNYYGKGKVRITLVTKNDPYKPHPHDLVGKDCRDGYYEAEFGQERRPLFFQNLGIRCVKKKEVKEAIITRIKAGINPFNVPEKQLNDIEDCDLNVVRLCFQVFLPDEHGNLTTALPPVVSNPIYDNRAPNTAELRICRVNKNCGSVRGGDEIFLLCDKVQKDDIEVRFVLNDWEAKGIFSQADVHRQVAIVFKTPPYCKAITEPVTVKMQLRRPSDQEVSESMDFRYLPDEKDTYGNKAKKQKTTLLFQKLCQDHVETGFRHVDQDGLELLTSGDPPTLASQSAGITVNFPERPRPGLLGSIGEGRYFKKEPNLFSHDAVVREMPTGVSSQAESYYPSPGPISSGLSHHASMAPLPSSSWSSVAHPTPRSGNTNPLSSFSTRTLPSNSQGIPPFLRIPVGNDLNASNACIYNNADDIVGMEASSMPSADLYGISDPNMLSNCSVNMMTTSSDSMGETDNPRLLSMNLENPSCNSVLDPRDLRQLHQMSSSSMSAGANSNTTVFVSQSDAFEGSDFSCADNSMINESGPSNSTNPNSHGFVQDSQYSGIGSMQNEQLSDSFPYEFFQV
# Experiment: Electrophoretic Mobility Shift Assay (EMSA), c-Rel binding to CD28RE oligonucleotide
# Conditions: 10 nM c-Rel protein
# Procedure: DNA binding reaction (20 μL) was carried out in 1×DNA Binding Buffer (10 mM Tris, 40 mM NaCl, 1 mM EDTA, 4% glycerol) with 10 nM c-Rel protein and 0.5 ng phosphor-labeled CD28RE oligonucleotide for 10 minutes at room temperature in 96-well plates. Test compounds, in serial dilutions, were added into each well, and further incubated for 15 minutes before loading onto native 5% polyacrylamide gel. Electrophoresis proceeded for 2.5 hours at 160V. Radioactive signals were quantified using Phospho-Imager. IC50 of compounds of example 1 to 75 were determined by quantifying the intensity of Rel/NF-κB inhibition in EMSA using phospho-imager. An example of EMSA data of the present invention is shown for compound 6 in FIG. 2.
row,Structure (SMILES),IC50
1,"CC(=O)OCCCCOc1ccc2cc3c(=O)[nH]c(=O)nc-3oc2c1Cl [compound 60, 4-((9-chloro-2,4-dioxo-3,4-dihydro-2H-chromeno[2,3-d]pyrimidin-8-yl)oxy)butyl acetate]",< 5000 nM
2,CCCCCOc1cc2oc3nc(=O)[nH]c(=O)c-3cc2cc1F [compound 30],< 500 nM
3,CC(C)(C)COc1cc2oc3nc(=O)[nH]c(=O)c-3cc2cc1F [compound 36],< 500 nM
4,CCCCOc1ccc2cc3c(=O)[nH]c(=O)nc-3oc2c1F [compound 45],< 500 nM
5,"COc1cc(OC)c2cc3c(=O)[nH]c(=S)nc-3oc2c1 [compound 18, 6,8-dimethoxy-2-thioxo-2H-chromeno[2,3-d]pyrimidin-4(3H)-one]",< 500 nM
6,COCCOCCCOc1ccc2cc3c(=O)[nH]c(=O)nc-3oc2c1Cl [compound 72],< 1000 nM
7,COCCOCCCOc1cc2oc3nc(=O)[nH]c(=O)c-3cc2cc1Cl [compound 74],< 1000 nM
8,CC(C)CCCOc1cc2oc3nc(=O)[nH]c(=O)c-3cc2cc1F [compound 35],< 1000 nM
9,"COCCOCCOc1ccc2cc3c(=O)[nH]c(=O)nc-3oc2c1 [compound 61, 8-(2-(2-methoxyethoxy)ethoxy)-2H-chromeno[2,3-d]pyrimidine-2,4(3H)-dione]",< 1000 nM
10,"Cc1cc2oc3nc(=O)[nH]c(=O)c-3cc2cc1F [compound 27, 7-fluoro-8-methyl-2H-chromeno[2,3-d]pyrimidine-2,4(3H)-dione]",< 500 nM
11,"CC(C)COc1ccc2cc3c(=O)[nH]c(=O)nc-3oc2c1 [compound 23, 8-isobutoxy-2H-chromeno[2,3-d]pyrimidine-2,4(3H)-dione]",< 1000 nM
